Source: patent publication US8063225B2, “Tricyclic compound derivatives useful in the treatment of neoplastic diseases, inflammatory disorders and immunomodulatory disorders” (Chembridge Corporation, priority 2006, dated 2011)
Each block holds one compound with its values, some of them ahead of it.

Columns and labels:
IGF1R tyrosine kinase = molecular target: T1, IGF1R tyrosine kinase (Homo sapiens, UniProt P08069); test: IGF1R tyrosine kinase assay (Kinase-Glo ATP depletion or PT66/PT100 AlphaScreen); settings: biochemical tyrosine kinase assay
T1 construct: 6×His- or GST-tagged kinase domain fragments of the corresponding RTKs expressed in baculovirus system; host or cells: baculovirus system
T1 sequence (P08069 999-1274 limits assumed): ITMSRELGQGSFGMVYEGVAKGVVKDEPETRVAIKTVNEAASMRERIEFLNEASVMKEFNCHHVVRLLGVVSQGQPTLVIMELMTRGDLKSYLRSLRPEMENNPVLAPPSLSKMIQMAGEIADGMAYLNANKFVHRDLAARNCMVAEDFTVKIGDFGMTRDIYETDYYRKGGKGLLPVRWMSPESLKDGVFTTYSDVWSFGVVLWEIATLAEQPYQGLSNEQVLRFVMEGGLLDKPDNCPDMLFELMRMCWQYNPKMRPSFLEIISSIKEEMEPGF
How it was run: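 Inhibition measured on recombinant RTK kinase domains phosphorylating poly(Glu-Tyr) at 10 μM ATP, either by ATP depletion luminescence (37 °C, 60 min) or by PT66/PT100 AlphaScreen with biotinylated substrate (RT, 30 min plus 60 min bead step). For Alk, InsR and Jak2, enzyme titrated to ≤30% ATP consumption; IC50 from nonlinear regression.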

H929 (multiple myeloma) = test: Cell proliferation inhibition, Cell Titer-Glo, H929; assay type: cell-based; settings: Homo sapiens, NCI-H929; cell proliferation assay, H929 cells
How it was run: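 Cells seeded at 2500-5000 per well with serially diluted compound for typically 3 days. Viable cells measured by ATP luminescence (Cell Titer-Glo); IC50 from proliferation-inhibition curves.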

SMILES: CN1CCC(N2C(=O)c3cc4nc(-c5c(N[C@H](CO)Cc6c[nH]cn6)cc[nH]c5=O)[nH]c4cc3C2=O)CC1 [compound 2]
IC50 (IGF1R tyrosine kinase): > 15 µM

SMILES: O=C1c2cc3nc(-c4c(NC[C@@H](O)c5cccc(Cl)c5)cc[nH]c4=O)[nH]c3cc2C(=O)N1CCc1ccncc1 [compound 28]
IC50 (IGF1R tyrosine kinase): > 15 µM

SMILES: O=C1c2cc3nc(-c4c(NC[C@@H](O)c5cccc(Cl)c5)cc[nH]c4=O)[nH]c3cc2C(=O)N1C[C@@H]1CCCO1 [compound 29]
IC50 (IGF1R tyrosine kinase): > 15 µM

SMILES: C[C@H](O)CN1C(=O)c2cc3nc(-c4c(NC[C@@H](O)c5cccc(Cl)c5)cc[nH]c4=O)[nH]c3cc2C1=O [compound 31]
IC50 (IGF1R tyrosine kinase): 5 to 15 µM | IC50 (H929 (multiple myeloma)): 0.5 to 5 µM

SMILES: Cc1ncsc1CCN1C(=O)c2cc3nc(-c4c(NC[C@@H](O)c5cccc(Cl)c5)cc[nH]c4=O)[nH]c3cc2C1=O [compound 32]
IC50 (IGF1R tyrosine kinase): 5 to 15 µM | IC50 (H929 (multiple myeloma)): 5 to 15 µM

SMILES: O=C1c2cc3nc(-c4c(NC[C@@H](O)c5cccc(Cl)c5)cc[nH]c4=O)[nH]c3cc2C(=O)N1[C@@H]1CN2CCC1CC2 [compound 33]
IC50 (IGF1R tyrosine kinase): < 0.5 µM

SMILES: O=C1c2cc3nc(-c4c(NC[C@@H](O)c5cccc(Cl)c5)cc[nH]c4=O)[nH]c3cc2C(=O)N1[C@H]1CN2CCC1CC2 [compound 34]
IC50 (IGF1R tyrosine kinase): < 0.5 µM | IC50 (H929 (multiple myeloma)): 5 to 15 µM

SMILES: Cc1ccc(OCC(O)CNc2cc[nH]c(=O)c2-c2nc3cc4c(cc3[nH]2)C(=O)N(CC2CCN(CCO)CC2)C4=O)c(C)c1 (centres unmarked) [compound 37]
IC50 (IGF1R tyrosine kinase): > 15 µM | IC50 (H929 (multiple myeloma)): 0.5 to 5 µM

SMILES: Cc1cc(C)c(OC[C@H](O)CNc2cc[nH]c(=O)c2-c2nc3cc4c(cc3[nH]2)C(=O)N(C2CCN(C)CC2)C4=O)c(CS(C)(=O)=O)c1 [compound 84]
IC50 (IGF1R tyrosine kinase): 0.5 to 5 µM | IC50 (H929 (multiple myeloma)): 0.5 to 5 µM

SMILES: CN1CCC(N2C(=O)c3cc4nc(-c5c(NC[C@@H](O)COc6ccc7ccccc7c6)cc[nH]c5=O)[nH]c4cc3C2=O)CC1 [compound 88]
IC50 (IGF1R tyrosine kinase): 0.5 to 5 µM | IC50 (H929 (multiple myeloma)): 5 to 15 µM

SMILES: CN1CCC(N2C(=O)c3cc4nc(-c5c(NC[C@@H](O)COc6cccc(-c7ccccc7)c6)cc[nH]c5=O)[nH]c4cc3C2=O)CC1 [compound 89]
IC50 (IGF1R tyrosine kinase): 0.5 to 5 µM | IC50 (H929 (multiple myeloma)): 5 to 15 µM

SMILES: CN1CCC(N2C(=O)c3cc4nc(-c5c(NC[C@@H](O)COc6cccc(OC(F)(F)C(F)F)c6)cc[nH]c5=O)[nH]c4cc3C2=O)CC1 [compound 91]
IC50 (IGF1R tyrosine kinase): 5 to 15 µM | IC50 (H929 (multiple myeloma)): 0.5 to 5 µM

SMILES: Cc1cc(C)n(C[C@H](O)CNc2cc[nH]c(=O)c2-c2nc3cc4c(cc3[nH]2)C(=O)N(C2CCN(C)CC2)C4=O)n1 [compound 92]
IC50 (IGF1R tyrosine kinase): 5 to 15 µM

SMILES: CN1CCC(N2C(=O)c3cc4nc(-c5c(NC[C@@H](O)COc6cccc(Cl)c6F)cc[nH]c5=O)[nH]c4cc3C2=O)CC1 [compound 96]
IC50 (IGF1R tyrosine kinase): 0.5 to 5 µM | IC50 (H929 (multiple myeloma)): 5 to 15 µM

SMILES: CN1CCC(N2C(=O)c3cc4nc(-c5c(NC[C@@H](O)COc6cccc(C(F)(F)F)c6)cc[nH]c5=O)[nH]c4cc3C2=O)CC1 [compound 97]
IC50 (IGF1R tyrosine kinase): 0.5 to 5 µM | IC50 (H929 (multiple myeloma)): 5 to 15 µM

SMILES: Cc1cc(C)c(OC[C@H](O)CNc2cc[nH]c(=O)c2-c2nc3cc4c(cc3[nH]2)C(=O)N(C2CCN(C)CC2)C4=O)cc1Cl [compound 108]
IC50 (IGF1R tyrosine kinase): 0.5 to 5 µM

SMILES: Cc1ccc(Cl)c(C)c1OC[C@H](O)CNc1cc[nH]c(=O)c1-c1nc2cc3c(cc2[nH]1)C(=O)N(C1CCN(C)CC1)C3=O [compound 111]
IC50 (IGF1R tyrosine kinase): 0.5 to 5 µM

SMILES: Cc1ccc2c(ccn2C[C@H](O)CNc2cc[nH]c(=O)c2-c2nc3cc4c(cc3[nH]2)C(=O)N(C2CCN(C)CC2)C4=O)c1 [compound 131]
IC50 (IGF1R tyrosine kinase): 5 to 15 µM | IC50 (H929 (multiple myeloma)): 0.5 to 5 µM

Results, then the compound that gave them:

IC50 (IGF1R tyrosine kinase): < 0.5 µM | IC50 (H929 (multiple myeloma)): 0.5 to 5 µM
SMILES: CN1CCC(N2C(=O)c3cc4nc(-c5c(NC[C@@H](O)c6cccc(Cl)c6)cc[nH]c5=O)[nH]c4cc3C2=O)CC1 [compound 1]

IC50 (IGF1R tyrosine kinase): < 0.5 µM | IC50 (H929 (multiple myeloma)): 5 to 15 µM
SMILES: COc1cccc(OCC(O)CNc2cc[nH]c(=O)c2-c2nc3cc4c(cc3[nH]2)C(=O)N(C2CCN(C)CC2)C4=O)c1 (centres unmarked) [compound 6]

IC50 (IGF1R tyrosine kinase): < 0.5 µM | IC50 (H929 (multiple myeloma)): 0.5 to 5 µM
SMILES: Cc1ccc(OCC(O)CNc2cc[nH]c(=O)c2-c2nc3cc4c(cc3[nH]2)C(=O)N(C2CCN(C)CC2)C4=O)c(C)c1 (centres unmarked) [compound 15]

IC50 (IGF1R tyrosine kinase): 0.5 to 5 µM
SMILES: CC(C)(CO)CN1C(=O)c2cc3nc(-c4c(NC[C@@H](O)c5cccc(Cl)c5)cc[nH]c4=O)[nH]c3cc2C1=O [compound 26]

IC50 (IGF1R tyrosine kinase): < 0.5 µM | IC50 (H929 (multiple myeloma)): 0.5 to 5 µM
SMILES: Cc1ccc(OC[C@H](O)CNc2cc[nH]c(=O)c2-c2nc3cc4c(cc3[nH]2)C(=O)N(C2CCN(C)CC2)C4=O)c(C)c1 [compound 59]

IC50 (IGF1R tyrosine kinase): < 0.5 µM
SMILES: Cc1ccc(OC[C@@H](O)CNc2cc[nH]c(=O)c2-c2nc3cc4c(cc3[nH]2)C(=O)N(C2CCN(C)CC2)C4=O)c(C)c1 [compound 64]

IC50 (IGF1R tyrosine kinase): < 0.5 µM | IC50 (H929 (multiple myeloma)): 5 to 15 µM
SMILES: CN1CCC(N2C(=O)c3cc4nc(-c5c(NC[C@@H](O)COc6cccc7ccccc67)cc[nH]c5=O)[nH]c4cc3C2=O)CC1 [compound 87]

IC50 (IGF1R tyrosine kinase): < 0.5 µM | IC50 (H929 (multiple myeloma)): 0.5 to 5 µM
SMILES: COc1ccc(OC[C@H](O)CNc2cc[nH]c(=O)c2-c2nc3cc4c(cc3[nH]2)C(=O)N(C2CCN(C)CC2)C4=O)c(OC)c1OC [compound 93]

IC50 (IGF1R tyrosine kinase): < 0.5 µM | IC50 (H929 (multiple myeloma)): 5 to 15 µM
SMILES: Cc1c(Cl)cccc1OC[C@H](O)CNc1cc[nH]c(=O)c1-c1nc2cc3c(cc2[nH]1)C(=O)N(C1CCN(C)CC1)C3=O [compound 94]

IC50 (IGF1R tyrosine kinase): < 0.5 µM | IC50 (H929 (multiple myeloma)): 5 to 15 µM
SMILES: CN1CCC(N2C(=O)c3cc4nc(-c5c(NC[C@@H](O)COc6c(F)ccc(Cl)c6F)cc[nH]c5=O)[nH]c4cc3C2=O)CC1 [compound 95]

IC50 (IGF1R tyrosine kinase): < 0.5 µM | IC50 (H929 (multiple myeloma)): 5 to 15 µM
SMILES: Cc1cc(C)c(OC[C@H](O)CNc2cc[nH]c(=O)c2-c2nc3cc4c(cc3[nH]2)C(=O)N(C2CCN(C)CC2)C4=O)c(C)c1 [compound 98]

IC50 (IGF1R tyrosine kinase): < 0.5 µM
SMILES: Cc1ccc(OC[C@H](O)CNc2cc[nH]c(=O)c2-c2nc3cc4c(cc3[nH]2)C(=O)N(C2CCN(C)CC2)C4=O)cc1Cl [compound 99]

IC50 (IGF1R tyrosine kinase): < 0.5 µM | IC50 (H929 (multiple myeloma)): 5 to 15 µM
SMILES: Cc1ccc(OC[C@@H](O)CNc2cc[nH]c(=O)c2-c2nc3cc4c(cc3[nH]2)C(=O)N([C@H]2CCN(C)C2)C4=O)c(C)c1 [compound 106]

IC50 (IGF1R tyrosine kinase): < 0.5 µM | IC50 (H929 (multiple myeloma)): 5 to 15 µM
SMILES: Cc1ccc(OC[C@@H](O)CNc2cc[nH]c(=O)c2-c2nc3cc4c(cc3[nH]2)C(=O)N([C@@H]2CCN(C)C2)C4=O)c(C)c1 [compound 107]

IC50 (IGF1R tyrosine kinase): < 0.5 µM | IC50 (H929 (multiple myeloma)): 5 to 15 µM
SMILES: Cc1ccc(OC[C@H](O)CNc2cc[nH]c(=O)c2-c2nc3c(C)c4c(cc3[nH]2)C(=O)N(C2CCN(C)CC2)C4=O)c(C)c1 [compound 110]

IC50 (IGF1R tyrosine kinase): < 0.5 µM | IC50 (H929 (multiple myeloma)): 0.5 to 5 µM
SMILES: Cc1ccc(OC[C@H](O)CNc2cc[nH]c(=O)c2-c2nc3cc4c(cc3[nH]2)CN(C2CCN(C)CC2)C4=O)c(C)c1 [compound 130]

IC50 (IGF1R tyrosine kinase): < 0.5 µM | IC50 (H929 (multiple myeloma)): < 0.5 µM
SMILES: Cc1ccc(OC[C@H](O)CNc2cc[nH]c(=O)c2-c2nc3cc4c(c(C)c3[nH]2)CN(C2CCN(C)CC2)C4=O)c(C)c1 [compound 132]

IC50 (IGF1R tyrosine kinase): < 0.5 µM | IC50 (H929 (multiple myeloma)): 0.5 to 5 µM
SMILES: Cc1ccc(OC[C@H](O)CNc2cc[nH]c(=O)c2-c2nc3c(C)c4c(cc3[nH]2)C(=O)N(C2CCN(C)CC2)C4)c(C)c1 [compound 139]

IC50 (IGF1R tyrosine kinase): < 0.5 µM | IC50 (H929 (multiple myeloma)): < 0.5 µM
SMILES: Cc1ccc(OC[C@H](O)CNc2cc[nH]c(=O)c2-c2nc3c(C)c4c(cc3[nH]2)CN(C2CCN(C)CC2)C4=O)c(C)c1 [compound 140]

IC50 (IGF1R tyrosine kinase): < 0.5 µM | IC50 (H929 (multiple myeloma)): < 0.5 µM
SMILES: CCc1cc(C)ccc1OC[C@H](O)CNc1cc[nH]c(=O)c1-c1nc2cc3c(cc2[nH]1)CN(C1CCN(C)CC1)C3=O [compound 141]

IC50 (IGF1R tyrosine kinase): < 0.5 µM
SMILES: Cc1ccc(OC[C@H](O)CNc2cc[nH]c(=O)c2-c2nc3cc4c(cc3[nH]2)C(=O)N(C2CCNCC2)C4=O)c(C)c1 [compound 142]

IC50 (IGF1R tyrosine kinase): < 0.5 µM | IC50 (H929 (multiple myeloma)): 5 to 15 µM
SMILES: CCN1CCC(N2C(=O)c3cc4nc(-c5c(NC[C@@H](O)COc6ccc(C)cc6C)cc[nH]c5=O)[nH]c4cc3C2=O)CC1 [compound 143]

IC50 (IGF1R tyrosine kinase): < 0.5 µM | IC50 (H929 (multiple myeloma)): 0.5 to 5 µM
SMILES: CCN1CCC(N2Cc3cc4nc(-c5c(NC[C@@H](O)COc6ccc(C)cc6C)cc[nH]c5=O)[nH]c4cc3C2=O)CC1 [compound 144]
